“Also recorded” adds a separate entry of the source.
Key:
[1] = tested on: human coronary artery smooth muscle; assay: Proliferation of human coronary artery smooth muscle in vitro; assay type: cell-based; settings: in words (1436: about 11 μg/ml)
Text: Aminosterols of the invention may also have utility in inhibiting the growth factor mediated proliferation of smooth muscle within the artery. Following coronary angioplasty, reocclusion commonly occurs, secondary to reparative proliferation of the vascular smooth muscle within the wall of the surgically manipulated blood vessel. This process generally takes place over the course of 7-10 days. To evaluate whether an agent could prevent the growth factor mediated proliferation of smooth muscle within the artery, compound 1436 was evaluated in vitro for its effect on the proliferation of human coronary artery smooth muscle. Results for compound 1436 are shown in FIG. 13, and those for squalamine are shown in FIG. 14, with FIG. 15 being a composite logarithmic plot.

[2] = tested on: human umbilical venous endothelial cells; assay: LPS-induced neutrophil adherence to endothelial cells; settings: squalamine 10, 1.0 or 0.1 μg; three subjects
Experimental: To determine if squalamine inhibited this particular endothelial cell function, standard adhesion assays were performed as outlined in Gamble et al., J. Imm. […] In these experiments, approximately 2×10^5 human umbilical venous cells (passage 2-6) were plated per well. The cells were grown in serum-free media overnight. For induction, either TNF-α (40 ng/ml) was added to endothelial cells for 6 hours prior to adding neutrophils or LPS (100 ng/ml) was added for 4-6 hours. […] After activation of the endothelial cells, approximately 50×10^6 neutrophils were added per well. The plates were gently rocked for 30 minutes at room temperature, followed by removal of the media and washing in serum-free media three times and then photographing of each well. Experiments to test the effects of squalamine were performed by adding squalamine at 10 μg, 1.0 μg, or 0.1 μg at the time of adding LPS or TNF-α. A second repeat dose of squalamine was added at the time of adding neutrophils. A monoclonal Ab to ICAM-1 was a positive control.

[3] = tested on: Xenopus tadpole; settings: stage 59-60, 10 μg/ml
[4] = tested on: human foreskin fibroblasts; assay: Growth inhibition of fibroblasts in vitro; assay type: cell-based; settings: 10 μg/ml; absorbance at 600 nm
[5] = tested on: rabbit NHE1; assay: pH recovery in PS120 fibroblasts transfected with rabbit NHE1; assay type: cell-based; settings: 5 μg/ml; acid-preloaded
Experimental: (§1) PS120 fibroblasts transfected with rabbit or human NHE1 were grown as described above.

[6] = tested on: bovine pulmonary endothelial cells; assay: Growth inhibition of endothelial cells in vitro; assay type: cell-based; settings: 1 μg/ml; absorbance at 600 nm
[7] = tested on: chick embryo vitelline capillaries; assay: Chick embryo vitelline capillary regression assay; assay type: in vivo; design: key to vascular reactivity (capillary regression): +: Vascular reactivity; 0: No vascular reactivity; +/-: Equivocal reactivity; settings: for vascular reactivity (capillary regression): 60 min
Summary of the method: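 Each compound was applied onto 3-day chick embryos in 0.1 ml 15% Ficol 400 in PBS. Regression of vitelline capillaries was scored visually after 60 minutes.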

[8] = tested on: PHA-stimulated human lymphocytes; assay: Inhibition of mitogen (PHA)-stimulated growth of human T-cells; assay type: cell-based; settings: in words; 10 μg/ml
Text: Results are tabulated below.

[9] = tested on: human NHE1; assay: pH recovery in PS120 fibroblasts transfected with human NHE1; assay type: cell-based; settings: 5 μg/ml; acid-preloaded
Experimental: as §1

[10] = molecular target: rabbit NHE3 (Oryctolagus cuniculus, UniProt P26432); settings: 5 μg/ml squalamine; cells not acid-preloaded
Chain of rabbit NHE3 (P26432 30-832): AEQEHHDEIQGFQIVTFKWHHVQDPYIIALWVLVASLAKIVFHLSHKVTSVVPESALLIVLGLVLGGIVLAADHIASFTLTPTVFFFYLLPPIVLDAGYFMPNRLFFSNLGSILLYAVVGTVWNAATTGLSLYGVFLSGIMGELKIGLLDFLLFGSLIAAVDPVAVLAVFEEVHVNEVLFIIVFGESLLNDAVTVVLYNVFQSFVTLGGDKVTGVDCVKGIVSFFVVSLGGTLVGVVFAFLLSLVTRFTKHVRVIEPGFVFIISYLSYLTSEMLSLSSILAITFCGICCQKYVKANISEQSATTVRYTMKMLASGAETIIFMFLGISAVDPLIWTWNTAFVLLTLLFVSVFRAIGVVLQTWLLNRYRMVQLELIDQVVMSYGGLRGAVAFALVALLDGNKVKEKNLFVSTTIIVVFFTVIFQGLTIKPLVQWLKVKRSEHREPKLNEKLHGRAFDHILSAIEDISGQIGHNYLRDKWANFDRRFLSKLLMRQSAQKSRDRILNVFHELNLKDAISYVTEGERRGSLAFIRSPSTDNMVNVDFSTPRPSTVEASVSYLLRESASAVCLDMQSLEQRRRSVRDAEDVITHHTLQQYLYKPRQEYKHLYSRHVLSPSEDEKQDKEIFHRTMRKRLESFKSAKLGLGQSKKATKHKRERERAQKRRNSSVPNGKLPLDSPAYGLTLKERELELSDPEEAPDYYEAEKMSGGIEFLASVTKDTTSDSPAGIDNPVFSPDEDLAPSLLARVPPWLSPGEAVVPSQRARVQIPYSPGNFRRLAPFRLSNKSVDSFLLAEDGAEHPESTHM
Experimental: For cells not acid-preloaded, the actual internal pH value was monitored as a function of time following addition of squalamine, with the results depicted in FIG. 1B.
PS120 fibroblasts transfected with rabbit NHE3 were grown and acid preloaded by exposure to 40 mM NH4 C1 as described above in conjunction with FIGS. 1A and 1B. Internal cellular pH changes expressed as the rate of pH recovery as a function of restored extracellular sodium ion concentration following exposure to 10 μg/ml of the compound were assayed with the fluorescent dye BCECF-AM as described above.

[11] = tested on: human microvascular cells; assay: Inhibition of endothelial cell cord formation in vitro; assay type: cell-based; settings: at cord formation-inhibiting concentrations
Text: Endothelial cells have the capacity in vitro to form tubular aggregates resembling capillaries in various early stages of formation. This conversion occurs under relatively specific conditions, in which essential growth factors along with an effective substratum are provided. It has been shown that both the interaction of growth factors with the endothelial cell and its attachment to a substratum activate the NHE. The activation of this exchanger is believed to be required for subsequent morphologic transformation of the endothelial cell into a multicellular tubular structure.
To assess the effect of compounds on the cord-like structures formed by human microvascular cells when plated in the presence of VEFG (Vascular Endothelial Growth Factor) and basic fibroblast growth factor on a collagen matrix, a standard cord formation assay was used.

[12] = tested on: B16; assay: Cytostatic activity against B16 in culture; assay type: cell-based, murine
[13] = tested on: chorioallantoic membrane; assay: Chorioallantoic membrane (CAM) model; assay type: in vivo, chick; settings: for Percentage positive, Assay 1 / Percentage positive, Assay 2: 3-day embryo, some vascular irritation noted
Text: The growing capillaries within the chorioallantoic membrane model (CAM model) have been used as a system in which to evaluate the effect of agents on their potential to inhibit new vessel growth. Neovascularization occurs most aggressively over the first week of embryonic development. Thereafter capillary growth is characterized by principally "elongation" rather than "de novo" formation.
In the standard assay, agents are applied locally to a region of the embryo over which neovascularization will occur. Agents are assessed by their ability to inhibit this process, as evaluated by visual examination about 7 days after application. […] The assay utilized is described in detail in Auerbach et al., Pharm. Ther. 51, 1991, 1-11.

[14] = tested on: B16 melanoma; assay: B16 melanoma growth in C57B mice; assay type: in vivo, mouse
Experimental: The growth of B16 melanoma in C57B mice is dependent upon neovascularization.
Using the growth of B16 melanoma cells in C57B mice, a recognized model for the evaluation of inhibitors of angiogenesis on the growth of cancers, the effects of subcutaneous, intraperitoneal and oral administration of squalamine were evaluated.
In this model, there was observed little evidence of metastasis with or without treatment with chemotherapeutic agents.
Based on the idea that tumor growth involves both the clonal expansion of a malignant cell along with the development of a supporting vascular supply, a combination of compound 1436 with squalamine was tested to determine whether it would achieve a synergistic effect on solid tumor growth. This concept was evaluated in the B16 melanoma model.
Animals were implanted with B16 melanoma followed by treatment with compound 1436 or 1256 administered in a combined schedule or separately. […] Thus, a combination of these two compounds achieves a therapeutic benefit in tumors dependent on neovascularization that may prevent metastatic spread.

[15] = tested on: melanoma 1205Lu; assay: Human melanoma growth in immunocompromised RAG-1 mice; assay type: in vivo, human tumor in RAG-1 mice; settings: 10, 20, 40 mg/kg/d (FIG. 5)
Text: As apparent from FIG. 5, melanoma 1205Lu develops aggressively in RAG-1 mice after implantation.

[16] = tested on: human epithelial cell line MCF 10A; assay: Growth inhibition of epithelial cells in vitro; assay type: cell-based; settings: 10 μg/ml; absorbance at 600 nm
[17] = Fasting blood glucose in mice; assay type: in vivo, mouse (male CD-1); settings: 2 x 10 mg/kg i.v. (total 20 mg/kg), 30 min after 2d dose; in H2O (1437, 1256) or D5W (1436)
Experimental: To study the effect of steroid administrator or the NHE responsible for secretion of insulin, several of the aminosterols from shark liver were administered to fasting mice. Male CD-1 mice were assigned to one of four treatment groups. Whole blood glucose was tested using glucometer (Lifescan Glucometer II and One Touch test strips). Statistical analysis was via one-way analysis of variance (ANOVA) followed by subsequent Bonferonni's t-test.

[18] = tested on: bacteria, fungi and protozoa; settings: background; cited from earlier work

Compound: CC(C)[C@@H](CC[C@@H](C)[C@H]1CC[C@H]2[C@@H]3[C@H](O)C[C@H]4C[C@@H](NCCCNCCCCN)CC[C@]4(C)[C@H]3CC[C@]12C)OS(=O)(=O)O [Squalamine, squalamine]
- growth suppression / viability of smooth muscle cells [1]: suppress in vitro the growth of human coronary artery smooth muscle
- inhibition of neutrophil adherence [2]: no inhibition
- time to death [3]: ≤ 2 h
- pharmacological response in tadpole ([3]; in words, listed as Compound 1256 (Squalamine)): Vascular occlusion in fine capillaries of tail. No effect on vascular flow through hands or feet.
- growth inhibition [4]: no effect
- inhibition of rabbit NHE1 [5]: no inhibitory activity; also recorded: lack of inhibition of rabbit sodium/proton exchanger isoform 1 (NHE1)
- growth inhibition [6]: inhibited the growth
- vascular reactivity (capillary regression) ([7]; 0.001 μg applied): 0
- vascular reactivity (capillary regression) ([7]; 0.01 μg applied): +
- vascular reactivity (capillary regression) ([7]; 0.1 μg applied): +
- vascular reactivity (capillary regression) ([7]; 1 μg applied): +
- vascular reactivity (capillary regression) ([7]; 10 μg applied): +
- effect on chick embryo vessels / blood ([7]; in words): disrupt vitelline capillaries in 3- to 5-day chick embryos
- effect on chick embryo vessels / blood ([7]; in words, listed as squalamine): especially active
- hemorrhage / hemolysis / heartbeat in chick embryo ([7]; in words, listed as squalamine): No hemorrhage was seen; also recorded: absence of hemolysis; also recorded: The embryonic heart continued to beat vigorously
- inhibition of blast transformation [8]: Some effect
- inhibition of human NHE1 [9]: no inhibitory activity; also recorded: lack of inhibition of human NHE1
- resting internal pH [10]: the resting pH of these cells was also inhibited
- effect on cell viability or proliferation [11]: does not appear to profoundly affect cell viability or proliferation
- cytostatic activity against B16 [12]: minimal cytostatic activity against B16 in culture, except at very high concentrations
- Percentage positive, Assay 1 ([13]; 20 μg applied): 52 Percentage
- Percentage positive, Assay 2 ([13]; 20 μg applied): 58 Percentage
- Percentage positive, Assay 1 ([13]; 40 μg applied): 50 Percentage
- Percentage positive, Assay 2 ([13]; 40 μg applied): 13 Percentage
- Percentage positive ([13]; 13-day embryo, 5.0 μg applied, positive/total): 0/26
- body weight and hematologic parameters ([14]; s.c., i.p. or oral squalamine): no significant depression
- effect on B16 tumor volume, single agent and combination ([14]; squalamine 5 mg/kg/day, compound 1436 10 mg/kg/every 3 days): no significant impact on tumor volume
- suppression of B16 melanoma tumor growth ([14]; squalamine subcutaneous, intraperitoneal, oral): a dose-dependent suppression of tumor volume; also recorded: suppression of the growth of murine melanoma
- suppression of human melanoma growth [15]: suppress the growth of melanoma 1205Lu in RAG-1 mice in a dose-dependent fashion; also recorded: clear suppression of tumor growth in a dose-dependent fashion
- suppression of human melanoma growth ([15]; listed as squalamine): After cessation of treatment, tumor growth continued at a rate similar to untreated controls
- growth inhibition [16]: no effect
- Fasting Blood Glucose Mean ± SEM [17]: 65 ± 7.3 mg/dL
- antibiotic spectrum [18]: broad-spectrum antibiotic, killing bacteria, fungi and protozoa

Source: patent US5840740A, “Aminosterol compounds and a method of treating infection using the aminosterol compounds” (priority 1995, dated 1998)
